Source: patent EP4745137A1 (Gluetacs Therapeutics (Shanghai) Co., Ltd., priority 2023, dated 2025)
One block for each compound: values may come before it.

What was measured:
WEE1 = biological target: T1, WEE1 (Homo sapiens, UniProt P30291+Q96SW2); assay: Western-blot assay of substrate protein degradation in hPBMCs, WEE1; type: cell-based; conditions: 24 hours of compound treatment
T1 construct: endogenous in cells; host or cells: hPBMCs (Milecell Biotechnologies)

IKZF1 = biological target: T2, IKZF1 (Homo sapiens, UniProt Q13422+Q96SW2); assay: Western-blot assay of substrate protein degradation in hPBMCs, IKZF1; type: cell-based; conditions: 24 hours of compound treatment
T2 construct: endogenous in cells; host or cells: hPBMCs (Milecell Biotechnologies)
T2 sequence (Q13422 whole entry): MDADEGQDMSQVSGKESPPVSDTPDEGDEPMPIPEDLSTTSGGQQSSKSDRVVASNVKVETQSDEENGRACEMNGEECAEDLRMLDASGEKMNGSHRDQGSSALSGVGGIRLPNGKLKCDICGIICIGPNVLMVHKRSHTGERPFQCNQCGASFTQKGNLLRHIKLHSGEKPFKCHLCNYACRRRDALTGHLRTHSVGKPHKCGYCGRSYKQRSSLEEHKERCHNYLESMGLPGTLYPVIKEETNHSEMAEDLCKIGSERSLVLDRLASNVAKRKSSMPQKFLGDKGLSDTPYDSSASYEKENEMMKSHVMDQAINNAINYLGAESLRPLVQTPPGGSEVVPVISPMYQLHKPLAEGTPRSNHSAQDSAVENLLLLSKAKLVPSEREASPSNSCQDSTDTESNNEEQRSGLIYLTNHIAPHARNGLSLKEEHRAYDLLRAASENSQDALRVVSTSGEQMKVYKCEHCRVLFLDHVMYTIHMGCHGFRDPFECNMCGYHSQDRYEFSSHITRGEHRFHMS
T2 sequence (Q96SW2 whole entry): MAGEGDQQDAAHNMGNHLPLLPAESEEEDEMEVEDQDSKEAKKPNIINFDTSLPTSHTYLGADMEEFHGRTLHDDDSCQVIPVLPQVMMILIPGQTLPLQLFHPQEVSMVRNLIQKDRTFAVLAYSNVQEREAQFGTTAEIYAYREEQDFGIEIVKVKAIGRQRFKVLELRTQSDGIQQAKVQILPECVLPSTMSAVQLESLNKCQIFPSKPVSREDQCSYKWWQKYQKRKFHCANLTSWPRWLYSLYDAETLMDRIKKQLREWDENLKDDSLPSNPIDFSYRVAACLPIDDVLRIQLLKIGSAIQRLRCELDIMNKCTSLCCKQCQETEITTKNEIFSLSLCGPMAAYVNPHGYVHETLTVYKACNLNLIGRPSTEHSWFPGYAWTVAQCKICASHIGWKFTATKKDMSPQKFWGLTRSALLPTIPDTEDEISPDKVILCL
T2 sequence (Q16531 whole entry partner): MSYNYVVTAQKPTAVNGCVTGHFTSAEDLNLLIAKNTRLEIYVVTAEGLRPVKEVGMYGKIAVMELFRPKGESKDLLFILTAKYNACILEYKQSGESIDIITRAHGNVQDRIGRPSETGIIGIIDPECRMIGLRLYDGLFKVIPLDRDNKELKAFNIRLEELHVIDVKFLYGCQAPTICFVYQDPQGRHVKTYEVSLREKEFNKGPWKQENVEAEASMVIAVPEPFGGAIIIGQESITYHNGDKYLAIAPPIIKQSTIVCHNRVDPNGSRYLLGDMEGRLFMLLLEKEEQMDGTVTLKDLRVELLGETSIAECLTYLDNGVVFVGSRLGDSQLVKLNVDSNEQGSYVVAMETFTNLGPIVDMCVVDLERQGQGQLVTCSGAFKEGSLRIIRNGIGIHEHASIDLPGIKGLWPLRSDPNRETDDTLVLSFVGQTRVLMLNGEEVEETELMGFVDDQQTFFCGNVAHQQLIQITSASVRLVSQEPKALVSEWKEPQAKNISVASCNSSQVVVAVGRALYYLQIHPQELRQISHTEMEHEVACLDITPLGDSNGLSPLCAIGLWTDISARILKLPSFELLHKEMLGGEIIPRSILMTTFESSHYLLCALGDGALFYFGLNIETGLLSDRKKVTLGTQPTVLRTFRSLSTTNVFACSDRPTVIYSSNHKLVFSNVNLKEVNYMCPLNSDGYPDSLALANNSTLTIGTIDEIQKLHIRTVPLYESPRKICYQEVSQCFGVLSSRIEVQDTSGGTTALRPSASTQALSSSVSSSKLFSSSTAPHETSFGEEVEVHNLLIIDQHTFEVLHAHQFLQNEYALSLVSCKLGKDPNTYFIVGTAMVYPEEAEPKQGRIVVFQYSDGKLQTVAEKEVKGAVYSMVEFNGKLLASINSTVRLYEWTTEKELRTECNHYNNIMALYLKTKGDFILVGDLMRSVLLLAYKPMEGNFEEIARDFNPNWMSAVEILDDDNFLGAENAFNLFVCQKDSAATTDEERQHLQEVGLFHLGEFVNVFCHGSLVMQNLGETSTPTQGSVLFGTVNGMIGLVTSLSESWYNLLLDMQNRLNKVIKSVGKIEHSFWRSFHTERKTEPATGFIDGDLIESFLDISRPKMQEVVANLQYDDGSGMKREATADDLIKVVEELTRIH

IKZF2 = biological target: T3, IKZF2 (Homo sapiens, UniProt Q96SW2+Q9UKS7); assay: Western-blot assay of substrate protein degradation in hPBMCs, IKZF2; type: cell-based; conditions: 24 hours of compound treatment
T3 construct: endogenous in cells; host or cells: hPBMCs (Milecell Biotechnologies)
T3 sequence (Q9UKS7 whole entry): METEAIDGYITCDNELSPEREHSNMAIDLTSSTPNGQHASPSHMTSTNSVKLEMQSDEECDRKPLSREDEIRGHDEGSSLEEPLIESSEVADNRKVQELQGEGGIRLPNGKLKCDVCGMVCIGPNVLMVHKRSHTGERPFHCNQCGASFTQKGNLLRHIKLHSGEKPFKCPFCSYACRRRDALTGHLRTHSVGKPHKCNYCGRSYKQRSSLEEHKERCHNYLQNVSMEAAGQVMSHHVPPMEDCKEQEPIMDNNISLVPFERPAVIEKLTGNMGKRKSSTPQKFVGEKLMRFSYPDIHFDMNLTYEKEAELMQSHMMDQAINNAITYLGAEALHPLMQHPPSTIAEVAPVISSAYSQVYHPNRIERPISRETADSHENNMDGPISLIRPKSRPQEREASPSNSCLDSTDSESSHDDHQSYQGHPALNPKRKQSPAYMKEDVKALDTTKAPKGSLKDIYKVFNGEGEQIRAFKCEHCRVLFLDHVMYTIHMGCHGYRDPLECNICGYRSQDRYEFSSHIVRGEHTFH
T3 sequence (Q96SW2 whole entry): as the sequence (Q96SW2 whole entry) above
T3 sequence (Q16531 whole entry partner): as the sequence (Q16531 whole entry partner) above

IKZF3 = biological target: T4, IKZF3 (Homo sapiens, UniProt Q96SW2+Q9UKT9); assay: Western-blot assay of substrate protein degradation in hPBMCs, IKZF3; type: cell-based; conditions: 24 hours of compound treatment
T4 construct: endogenous in cells; host or cells: hPBMCs (Milecell Biotechnologies)
T4 sequence (Q9UKT9 whole entry): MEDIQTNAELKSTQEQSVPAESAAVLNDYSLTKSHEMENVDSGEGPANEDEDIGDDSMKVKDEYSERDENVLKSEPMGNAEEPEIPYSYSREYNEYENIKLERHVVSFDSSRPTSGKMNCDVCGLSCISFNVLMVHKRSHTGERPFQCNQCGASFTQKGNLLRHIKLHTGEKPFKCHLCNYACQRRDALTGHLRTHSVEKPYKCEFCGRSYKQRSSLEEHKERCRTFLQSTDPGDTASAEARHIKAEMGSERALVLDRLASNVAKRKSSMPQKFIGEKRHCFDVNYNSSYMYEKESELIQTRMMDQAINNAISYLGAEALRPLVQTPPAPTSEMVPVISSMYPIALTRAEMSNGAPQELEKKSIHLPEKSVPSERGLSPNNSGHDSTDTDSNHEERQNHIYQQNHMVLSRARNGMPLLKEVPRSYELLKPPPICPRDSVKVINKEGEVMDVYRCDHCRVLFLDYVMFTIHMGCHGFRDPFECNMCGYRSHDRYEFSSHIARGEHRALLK
T4 sequence (Q96SW2 whole entry): as the sequence (Q96SW2 whole entry) above
T4 sequence (Q16531 whole entry partner): as the sequence (Q16531 whole entry partner) above

CK1α = biological target: T5, CK1α (Homo sapiens, UniProt P48729+Q96SW2); assay: Western-blot assay of substrate protein degradation in hPBMCs, CK1α; type: cell-based; conditions: 24 hours of compound treatment
T5 construct: endogenous in cells; host or cells: hPBMCs (Milecell Biotechnologies)

GSPT1 = biological target: T6, GSPT1 (Homo sapiens, UniProt P15170+Q96SW2); assay: Western-blot assay of substrate protein degradation in hPBMCs, GSPT1; type: cell-based; conditions: 24 hours of compound treatment
T6 construct: endogenous in cells; host or cells: hPBMCs (Milecell Biotechnologies)
T6 sequence (P15170 whole entry): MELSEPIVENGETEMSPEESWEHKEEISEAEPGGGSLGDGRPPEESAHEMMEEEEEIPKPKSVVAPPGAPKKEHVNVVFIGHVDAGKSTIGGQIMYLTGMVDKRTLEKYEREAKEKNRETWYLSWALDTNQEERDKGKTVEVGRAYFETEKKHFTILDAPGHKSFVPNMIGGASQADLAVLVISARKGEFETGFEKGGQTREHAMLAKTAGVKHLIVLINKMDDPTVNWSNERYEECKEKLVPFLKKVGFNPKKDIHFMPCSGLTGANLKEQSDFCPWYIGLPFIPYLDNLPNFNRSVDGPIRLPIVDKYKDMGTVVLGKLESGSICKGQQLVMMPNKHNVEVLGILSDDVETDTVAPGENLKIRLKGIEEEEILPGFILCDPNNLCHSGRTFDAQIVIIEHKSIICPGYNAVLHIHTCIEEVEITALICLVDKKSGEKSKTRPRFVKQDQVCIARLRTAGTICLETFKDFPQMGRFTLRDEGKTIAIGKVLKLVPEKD
T6 sequence (Q96SW2 whole entry): as the sequence (Q96SW2 whole entry) above
T6 sequence (Q16531 whole entry partner): as the sequence (Q16531 whole entry partner) above

[1] = biological target: T7, human Cereblon WT GST-tagged protein (Homo sapiens, UniProt Q96SW2); assay: CRBN-binding affinity by HTRF (CEREBLON BINDING kit); conditions: HTRF inhibitory activity, CEREBLON BINDING kit; read-out: HTRF IC50
T7 construct: purchased CISBIO 64BDCRBNPEH
T7 sequence (Q96SW2 whole entry): as the sequence (Q96SW2 whole entry) above
Description: The CEREBLON BINDING kits (specification: 10,000 tests; product number: Catalog # 64BDCRBNPEH; CISBIO company) was used to determine the CRBN binding ability of the compounds to be tested through a HTRF method (homogeneous time-resolved fluorescence). The specific methods are as follows: • 1. […] Specifically, diluent #9 (1X) solution was used as the diluent, and multiple concentration gradients were set. […] Then, 2.5 µL of human Cereblon WT GST-tagged protein solution was added to each well. Finally, 5 µL of the thoroughly mixed Thalidomide-Re reagent and GST Eu antibody working solution were added to each of the aforementioned wells. […] The blank control wells were sequentially added with 2.5 µL of diluent #9 (1X) solution, 2.5 µL of binding buffer, and 5 µL of thoroughly mixed Thalidomide-Re reagent and GST Eu antibody working solution. • 4.

[2] = 50 nM and 500 nM tested (concentration behind the class not stated)
[3] = compounds tested at 50 nM and 500 nM (concentration of the table not stated)

T1 sequence (P30291 whole entry): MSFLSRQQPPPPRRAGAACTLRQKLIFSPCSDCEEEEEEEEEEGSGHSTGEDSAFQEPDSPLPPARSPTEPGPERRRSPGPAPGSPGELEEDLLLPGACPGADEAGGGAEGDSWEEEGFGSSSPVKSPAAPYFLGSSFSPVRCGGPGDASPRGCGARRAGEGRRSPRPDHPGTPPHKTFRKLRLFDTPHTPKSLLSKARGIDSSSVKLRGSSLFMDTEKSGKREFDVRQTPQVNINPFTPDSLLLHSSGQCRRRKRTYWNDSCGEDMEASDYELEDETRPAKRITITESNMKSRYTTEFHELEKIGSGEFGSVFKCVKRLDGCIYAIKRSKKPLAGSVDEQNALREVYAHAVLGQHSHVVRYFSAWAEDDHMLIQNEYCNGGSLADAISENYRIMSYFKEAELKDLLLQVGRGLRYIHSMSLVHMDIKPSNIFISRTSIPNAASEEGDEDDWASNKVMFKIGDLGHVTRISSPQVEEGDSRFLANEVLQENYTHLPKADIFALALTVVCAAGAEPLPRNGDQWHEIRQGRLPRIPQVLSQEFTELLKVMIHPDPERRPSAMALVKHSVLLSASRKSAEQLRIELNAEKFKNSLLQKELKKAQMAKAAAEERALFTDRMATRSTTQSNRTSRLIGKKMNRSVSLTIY
T1 sequence (Q96SW2 whole entry): as the sequence (Q96SW2 whole entry) above
T1 sequence (Q16531 whole entry partner): as the sequence (Q16531 whole entry partner) above

- IC50 [1]: 0.5 to 1 µM
Compound: Cc1nc(C2CCN(Cc3ccc4c(c3)C(=O)N(C3CCC(=O)NC3=O)C4=O)CC2)c2c(-c3ccccc3)csc2n1 (centres unmarked) [GT-06646, 2-(2,6-dioxopiperidin-3-yl)-5-((4-(2-methyl-5-phenylthieno[2,3-d]pyrimidin-4-yl)piperidin-1-yl)methyl)isoindoline-1,3-dione]
- Weel substrate protein remaining % (WEE1; [2]): B (80%< substrate protein remaining %≤ 100%)
- IKZF 1 substrate protein remaining % (IKZF1; [2]): B (80%< substrate protein remaining %≤ 100%)
- IKZF2 substrate protein remaining % (IKZF2; [2]): B (80%< substrate protein remaining %≤ 100%)
- IKZF3 substrate protein remaining % (IKZF3; [2]): B (80%< substrate protein remaining %≤ 100%)
- CK1a substrate protein remaining % (CK1α; [2]): B (80%< substrate protein remaining %≤ 100%)
- GSPT1 substrate protein remaining % (GSPT1; [2]): A (0% ≤ substrate protein remaining % ≤ 80%)

- IC50 [1]: 0.5 to 1 µM
Compound: Cc1nc(C2=CCN(Cc3ccc4c(c3)C(=O)N(C3CCC(=O)NC3=O)C4=O)CC2)c2c(-c3ccccc3)csc2n1 (centres unmarked) [GT-06677, 2-(2,6-dioxopiperidin-3-yl)-5-((4-(2-methyl-5-phenylthieno[2,3-d]pyrimidin-4-yl)-3,6-dihydropyridin-1(2H)-yl)methyl)isoindoline-1,3-dione]
- Weel substrate protein remaining % (WEE1; [2]): B (80%< substrate protein remaining %≤ 100%)
- IKZF 1 substrate protein remaining % (IKZF1; [2]): B (80%< substrate protein remaining %≤ 100%)
- IKZF2 substrate protein remaining % (IKZF2; [2]): B (80%< substrate protein remaining %≤ 100%)
- IKZF3 substrate protein remaining % (IKZF3; [2]): B (80%< substrate protein remaining %≤ 100%)
- CK1a substrate protein remaining % (CK1α; [2]): A (0% ≤ substrate protein remaining % ≤ 80%)
- GSPT1 substrate protein remaining % (GSPT1; [2]): B (80%< substrate protein remaining %≤ 100%)

Compound: Cc1ccsc1C1=CCN(Cc2cccc3c2CN(C2CCC(=O)NC2=O)C3=O)CC1 (centres unmarked) [GT-04728, 3-(4-((4-(3-methylthiophen-2-yl)-3,6-dihydropyridin-1(2H)-yl)methyl)-1-oxoisoindolin-2-yl)piperidine-2,6-dione]
- Weel substrate protein remaining % (WEE1; [3]): B (80%< substrate protein remaining %≤ 100%)
- IKZF 1 substrate protein remaining % (IKZF1; [3]): B (80%< substrate protein remaining %≤ 100%)
- IKZF2 substrate protein remaining % (IKZF2; [3]): B (80%< substrate protein remaining %≤ 100%)
- IKZF3 substrate protein remaining % (IKZF3; [3]): B (80%< substrate protein remaining %≤ 100%)
- CK1a substrate protein remaining % (CK1α; [3]): B (80%< substrate protein remaining %≤ 100%)
- GSPT1 substrate protein remaining % (GSPT1; [3]): A (0% ≤ substrate protein remaining % ≤ 80%)
- IC50 [1]: 1 to 1.5 µM

- IC50 [1]: 0.5 to 1 µM
Compound: Cc1cc(N2CCN(Cc3ccc4c(c3)CN(C3CCC(=O)NC3=O)C4=O)CC2)cc(C)n1 (centres unmarked) [GT-04492, 3-(5-((4-(2,6-dimethylpyridin-4-yl)piperazin-1-yl)methyl)-1-oxoisoindolin-2-yl)piperidine-2,6-dione]
- Weel substrate protein remaining % (WEE1; [3]): B (80%< substrate protein remaining %≤ 100%)
- IKZF 1 substrate protein remaining % (IKZF1; [3]): B (80%< substrate protein remaining %≤ 100%)
- IKZF2 substrate protein remaining % (IKZF2; [3]): B (80%< substrate protein remaining %≤ 100%)
- IKZF3 substrate protein remaining % (IKZF3; [3]): B (80%< substrate protein remaining %≤ 100%)
- CK1a substrate protein remaining % (CK1α; [3]): A (0% ≤ substrate protein remaining % ≤ 80%)
- GSPT1 substrate protein remaining % (GSPT1; [3]): A (0% ≤ substrate protein remaining % ≤ 80%)

- IC50 [1]: < 0.5 µM
Compound: O=C1CCC(N2Cc3cc(CN4CCN(c5ccnc(Cl)c5Br)CC4)ccc3C2=O)C(=O)N1 (centres unmarked) [GT-04616, 3-(5-((4-(3-bromo-2-chloropyridin-4-yl)piperazin-1-yl)methyl)-1-oxoisoindolin-2-yl)piperidine-2,6-dione]
- Weel substrate protein remaining % (WEE1; [3]): B (80%< substrate protein remaining %≤ 100%)
- IKZF 1 substrate protein remaining % (IKZF1; [3]): B (80%< substrate protein remaining %≤ 100%)
- IKZF2 substrate protein remaining % (IKZF2; [3]): B (80%< substrate protein remaining %≤ 100%)
- IKZF3 substrate protein remaining % (IKZF3; [3]): B (80%< substrate protein remaining %≤ 100%)
- CK1a substrate protein remaining % (CK1α; [3]): B (80%< substrate protein remaining %≤ 100%)
- GSPT1 substrate protein remaining % (GSPT1; [3]): A (0% ≤ substrate protein remaining % ≤ 80%)

- IC50 [1]: < 0.5 µM
Compound: O=C1CCC(N2Cc3cc(CN4CCN(c5nc(N6CCOCC6)c6sccc6n5)CC4)ccc3C2=O)C(=O)N1 (centres unmarked) [GT-04906, 3-(5-((4-(4-morpholinothieno[3,2-d]pyrimidin-2-yl)piperazin-1-yl)methyl)-1-oxoisoindolin-2-yl)piperidine-2,6-dione]
- Weel substrate protein remaining % (WEE1; [3]): B (80%< substrate protein remaining %≤ 100%)
- IKZF 1 substrate protein remaining % (IKZF1; [3]): A (0% ≤ substrate protein remaining % ≤ 80%)
- IKZF2 substrate protein remaining % (IKZF2; [3]): B (80%< substrate protein remaining %≤ 100%)
- IKZF3 substrate protein remaining % (IKZF3; [3]): B (80%< substrate protein remaining %≤ 100%)
- CK1a substrate protein remaining % (CK1α; [3]): B (80%< substrate protein remaining %≤ 100%)
- GSPT1 substrate protein remaining % (GSPT1; [3]): B (80%< substrate protein remaining %≤ 100%)

- IC50 [1]: 0.5 to 1 µM
Compound: CC(C)c1cc2c(N3CCN(Cc4ccc5c(c4)CN(C4CCC(=O)NC4=O)C5=O)CC3)ncnc2s1 (centres unmarked) [GT-04705, 3-(5-((4-(6-isopropylthieno[2,3-d]pyrimidin-4-yl)piperazin-1-yl)methyl)-1-oxoisoindolin-2-yl)piperidine-2,6-dione]
- Weel substrate protein remaining % (WEE1; [3]): B (80%< substrate protein remaining %≤ 100%)
- IKZF 1 substrate protein remaining % (IKZF1; [3]): A (0% ≤ substrate protein remaining % ≤ 80%)
- IKZF2 substrate protein remaining % (IKZF2; [3]): A (0% ≤ substrate protein remaining % ≤ 80%)
- IKZF3 substrate protein remaining % (IKZF3; [3]): A (0% ≤ substrate protein remaining % ≤ 80%)
- CK1a substrate protein remaining % (CK1α; [3]): A (0% ≤ substrate protein remaining % ≤ 80%)
- GSPT1 substrate protein remaining % (GSPT1; [3]): A (0% ≤ substrate protein remaining % ≤ 80%)

- IC50 [1]: 0.5 to 1 µM
Compound: O=C1CCC(N2Cc3cc(CN4CCN(c5ncnc6ccsc56)CC4)ccc3C2=O)C(=O)N1 (centres unmarked) [GT-04681, 3-(1-oxo-5-((4-(thieno[3,2-d]pyrimidin-4-yl)piperazin-1-yl)methyl)isoindolin-2-yl)piperidine-2,6-dione]
- Weel substrate protein remaining % (WEE1; [3]): B (80%< substrate protein remaining %≤ 100%)
- IKZF 1 substrate protein remaining % (IKZF1; [3]): B (80%< substrate protein remaining %≤ 100%)
- IKZF2 substrate protein remaining % (IKZF2; [3]): B (80%< substrate protein remaining %≤ 100%)
- IKZF3 substrate protein remaining % (IKZF3; [3]): B (80%< substrate protein remaining %≤ 100%)
- CK1a substrate protein remaining % (CK1α; [3]): A (0% ≤ substrate protein remaining % ≤ 80%)
- GSPT1 substrate protein remaining % (GSPT1; [3]): A (0% ≤ substrate protein remaining % ≤ 80%)

- IC50 [1]: 0.5 to 1 µM
Compound: O=C1CCC(N2Cc3cc(CN4CCN(c5ccccn5)CC4)ccc3C2=O)C(=O)N1 (centres unmarked) [GT-04449, 3-(1-oxo-5-((4-(pyridin-2-yl)piperazin-1-yl)methyl)isoindolin-2-yl)piperidine-2,6-dione]
- Weel substrate protein remaining % (WEE1; [3]): A (0% ≤ substrate protein remaining % ≤ 80%)
- IKZF 1 substrate protein remaining % (IKZF1; [3]): A (0% ≤ substrate protein remaining % ≤ 80%)
- IKZF2 substrate protein remaining % (IKZF2; [3]): A (0% ≤ substrate protein remaining % ≤ 80%)
- IKZF3 substrate protein remaining % (IKZF3; [3]): A (0% ≤ substrate protein remaining % ≤ 80%)
- CK1a substrate protein remaining % (CK1α; [3]): A (0% ≤ substrate protein remaining % ≤ 80%)
- GSPT1 substrate protein remaining % (GSPT1; [3]): A (0% ≤ substrate protein remaining % ≤ 80%)

Compound: O=C1CCC(N2C(=O)c3ccc(CN4CC=C(c5ccoc5)CC4)cc3C2=O)C(=O)N1 (centres unmarked) [GT-06223, 2-(2,6-dioxopiperidin-3-yl)-5-((4-(furan-3-yl)-3,6-dihydropyridin-1(2H)-yl)methyl)isoindoline-1,3-dione]
- Weel substrate protein remaining % (WEE1; [2]): A (0% ≤ substrate protein remaining % ≤ 80%)
- IKZF 1 substrate protein remaining % (IKZF1; [2]): A (0% ≤ substrate protein remaining % ≤ 80%)
- IKZF2 substrate protein remaining % (IKZF2; [2]): B (80%< substrate protein remaining %≤ 100%)
- IKZF3 substrate protein remaining % (IKZF3; [2]): A (0% ≤ substrate protein remaining % ≤ 80%)
- CK1a substrate protein remaining % (CK1α; [2]): A (0% ≤ substrate protein remaining % ≤ 80%)
- GSPT1 substrate protein remaining % (GSPT1; [2]): A (0% ≤ substrate protein remaining % ≤ 80%)
- IC50 [1]: 1 to 1.5 µM

- IC50 [1]: < 0.5 µM
Compound: Cc1sc2ncnc(N3CCCN(Cc4ccc5c(c4)CN(C4CCC(=O)NC4=O)C5=O)CC3)c2c1C (centres unmarked) [GT-04707, 3-(5-((4-(5,6-dimethylthieno[2,3-d]pyrimidin-4-yl)-1,4-diazepan-1-yl)methyl)-1-oxoisoindolin-2-yl)piperidine-2,6-dione]
- Weel substrate protein remaining % (WEE1; [3]): B (80%< substrate protein remaining %≤ 100%)
- IKZF 1 substrate protein remaining % (IKZF1; [3]): A (0% ≤ substrate protein remaining % ≤ 80%)
- IKZF2 substrate protein remaining % (IKZF2; [3]): A (0% ≤ substrate protein remaining % ≤ 80%)
- IKZF3 substrate protein remaining % (IKZF3; [3]): A (0% ≤ substrate protein remaining % ≤ 80%)
- CK1a substrate protein remaining % (CK1α; [3]): A (0% ≤ substrate protein remaining % ≤ 80%)
- GSPT1 substrate protein remaining % (GSPT1; [3]): A (0% ≤ substrate protein remaining % ≤ 80%)
